Where a SMILES comes first, the peptide text is derived from it. [ ]: non-standard residue; d: D form. Nle = CCCC[C@H](N)C(=O)O
Experiments:
Proteasome [1] = assay: Inhibition of chymotrypsin-like activity of 20S proteasome; format: subcellular
Calpain 1 [2] = biological target: T1, Calpain 1 (Homo sapiens, UniProt P04632+P07384); assay: Inhibitory activity against calpain I; no inhibition was observed; format: protein-complex assay
T1 sequence (P04632 whole entry): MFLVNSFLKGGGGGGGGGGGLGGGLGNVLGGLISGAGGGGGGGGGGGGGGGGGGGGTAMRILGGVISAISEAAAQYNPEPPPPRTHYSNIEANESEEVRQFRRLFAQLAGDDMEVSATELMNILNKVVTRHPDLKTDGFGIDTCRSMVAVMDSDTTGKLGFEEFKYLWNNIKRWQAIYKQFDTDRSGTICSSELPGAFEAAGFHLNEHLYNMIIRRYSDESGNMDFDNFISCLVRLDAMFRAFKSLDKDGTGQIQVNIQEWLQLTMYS
T1 sequence (P07384 whole entry): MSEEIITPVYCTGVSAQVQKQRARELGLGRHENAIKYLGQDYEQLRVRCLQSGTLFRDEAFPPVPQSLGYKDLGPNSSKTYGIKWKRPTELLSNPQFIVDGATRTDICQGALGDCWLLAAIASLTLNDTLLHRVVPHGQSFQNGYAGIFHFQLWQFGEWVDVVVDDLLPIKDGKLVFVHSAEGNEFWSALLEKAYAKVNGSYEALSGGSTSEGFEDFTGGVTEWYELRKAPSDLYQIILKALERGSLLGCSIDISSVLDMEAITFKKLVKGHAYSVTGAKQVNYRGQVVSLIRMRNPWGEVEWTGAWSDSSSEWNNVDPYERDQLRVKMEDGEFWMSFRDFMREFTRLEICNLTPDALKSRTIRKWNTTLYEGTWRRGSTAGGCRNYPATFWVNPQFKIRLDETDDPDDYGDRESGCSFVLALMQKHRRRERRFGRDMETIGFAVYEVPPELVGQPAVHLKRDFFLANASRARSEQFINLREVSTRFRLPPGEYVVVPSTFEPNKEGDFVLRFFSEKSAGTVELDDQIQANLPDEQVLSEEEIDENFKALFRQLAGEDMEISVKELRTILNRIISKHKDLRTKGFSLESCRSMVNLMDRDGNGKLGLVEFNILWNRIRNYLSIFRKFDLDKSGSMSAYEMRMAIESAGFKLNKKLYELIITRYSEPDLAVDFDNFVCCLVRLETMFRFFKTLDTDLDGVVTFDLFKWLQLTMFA

RAW = assay: Antiproliferative activity against murine macrophage (RAW) cell line; format: functional, cell-based; settings: Mus musculus
Proteasome [3] = assay: Inhibition of chymotrypsin-like activity of 20S proteasome; value ranges from 10-20 uM; format: subcellular
Calpain 1 [4] = biological target: Calpain 1 (Homo sapiens, UniProt P07384); assay: Inhibitory activity against Calpain I; format: protein-complex assay

SMILES	IC50 (Proteasome [1]) [µM]	IC50 (Calpain 1 [2])	IC50 (RAW) [µM]	IC50 (Proteasome [3]) [µM]	IC50 (Calpain 1 [4]) [µM]
COc1ccc2c(c1)C(CC(=O)N[C@@H](CC(C)C)C(=O)N[C@H](CC(C)C)C(=O)NCc1ccc([N+](=O)[O-])cc1)CC2=O (some centres undefined)	> 17	No inhibition	–	–	–
COc1ccc2c(c1)C(CC(=O)N[C@@H](CC(C)C)C(=O)N[C@H](CC(C)C)C(=O)N(C)Cc1ccccc1)CC2=O (some centres undefined)	> 18	No inhibition	–	–	–
COc1ccc2c(c1)C(CC(=O)N[C@H](CC(C)C)C(=O)N[C@H](CC(C)C)C(=O)NCC(N)=O)CC2=O (some centres undefined)	> 20	No inhibition	–	–	–
COc1ccc2c(c1)C(CC(=O)N[C@@H](CC(C)C)C(=O)N[C@@H](CC(C)C)C(N)=O)CC2=O (some centres undefined)	> 20	No inhibition	–	–	–
COc1ccc2c(c1)C(CC(=O)N[C@@H](C(=O)N[C@H](CC(C)C)C(N)=O)C(C)C)CC2=O (some centres undefined)	> 20	No inhibition	–	–	–
COc1ccc2c(c1)C(CC(=O)N[C@@H](CC(C)C)C(=O)N[C@H](CC(C)C)C(=O)NC1CCc3ccccc31)CC2=O (some centres undefined)	0.89	No inhibition	–	–	–
COc1ccc2c(c1)C(CC(=O)N[C@@H](CC(C)C)C(=O)N[C@H](CC(C)C)C(=O)NCc1ccco1)CC2=O (some centres undefined)	1.9	No inhibition	–	–	–
COc1ccc2c(c1)C(CC(=O)N[C@@H](CC(C)C)C(=O)N[C@@H](CC(C)C)C(=O)NCC(N)=O)CC2=O (some centres undefined)	> 20	No inhibition	–	–	–
COc1ccc2c(c1)C(CC(=O)N[C@H](CC(C)C)C(=O)N[C@H](CC(C)C)C(N)=O)CC2=O (some centres undefined)	2.2	No inhibition	–	–	–
COc1ccc2c(c1)C(CC(=O)N[C@@H](CC(C)C)C(=O)N[C@H](CC(C)C)C(=O)N1CCCCC1)CC2=O (some centres undefined)	> 20	No inhibition	–	–	–
COc1ccc2c(c1)C(CC(=O)N[C@@H](CC(C)C)C(=O)N[C@H](CC(C)C)C(=O)Nc1ccccc1)CC2=O (some centres undefined)	> 19	No inhibition	–	–	–
COc1ccc2c(c1)C(CC(=O)N[C@@H](CC(C)C)C(=O)N[C@H](CC(C)C)C(=O)NCc1ccccc1)CC2=O (some centres undefined)	0.93	No inhibition	7	–	–
COc1ccc2c(c1)C(CC(=O)N[C@H](CC(C)C)C(=O)N[C@@H](CC(C)C)C(=O)NCC(N)=O)CC2=O (some centres undefined)	–	No inhibition	–	10	–
COc1ccc2c(c1)C(CC(=O)N[C@H](CC(C)C)C(=O)N[C@@H](C(N)=O)C(C)C)CC2=O (some centres undefined)	> 20	No inhibition	–	–	–
COc1ccc2c(c1)C(CC(=O)N[C@@H](CC(C)C)C(=O)N[C@H](CC(C)C)C(=O)NC1C3CC4CC(C3)CC1C4)CC2=O (some centres undefined)	> 18	No inhibition	–	–	–
COc1ccc2c(c1)C(CC(=O)N[C@@H](CC(C)C)C(=O)N[C@H](CC(C)C)C(=O)NCc1ccc3c(c1)OCO3)CC2=O (some centres undefined)	0.34	No inhibition	–	–	–
COc1ccc2c(c1)C(CC(=O)N[C@H](CC(C)C)C(=O)N[C@@H](CC(C)C)C(N)=O)CC2=O (some centres undefined)	> 20	No inhibition	–	–	–
COc1ccc2c(c1)C(CC(=O)N[C@@H](CC(C)C)C(=O)N[C@H](CC(C)C)C(=O)NCc1c(F)c(F)c(F)c(F)c1F)CC2=O (some centres undefined)	> 16	No inhibition	–	–	–

SMILES	IC50 (Proteasome [1]) [µM]	IC50 (Calpain 1 [2])	IC50 (RAW) [µM]	IC50 (Proteasome [3]) [µM]	IC50 (Calpain 1 [4]) [µM]
CCC[C@H](NC(=O)CC1CC(=O)c2ccc(OC)cc21)C(=O)N[C@H](CC(C)C)C(=O)NCC(N)=O (some centres undefined)	> 20	No inhibition	–	–	–
COc1ccc2c(c1)C(CC(=O)N[C@@H](CC(C)C)C(=O)N[C@H](CC(C)C)C(=O)NCC1CCCCC1)CC2=O (some centres undefined)	> 18	No inhibition	–	–	–
COc1ccc2c(c1)C(CC(=O)N[C@@H](CC(C)C)C(=O)N[C@H](CC(C)C)C(=O)NCCO)CC2=O (some centres undefined)	> 20	No inhibition	–	–	–
COc1ccc2c(c1)C(CC(=O)N[C@@H](CC(C)C)C(=O)N[C@H](CC(C)C)C(=O)NCC(N)=O)CC2=O (some centres undefined)	0.2	No inhibition	–	–	–
COc1ccc2c(c1)C(CC(=O)N[C@@H](CC(C)C)C(=O)N[C@H](CC(C)C)C(=O)N1CCCC1)CC2=O (some centres undefined)	> 20	No inhibition	–	–	–
COc1ccc2c(c1)C(CC(=O)N[C@@H](CC(C)C)C(=O)N[C@H](CC(C)C)C(=O)N1CCOCC1)CC2=O (some centres undefined)	> 20	No inhibition	–	–	–
COc1ccc2c(c1)C(CC(=O)N[C@@H](CC(C)C)C(=O)N[C@H](CC(C)C)C(N)=O)CC2=O (some centres undefined)	> 20	No inhibition	–	–	–
COc1ccc2c(c1)C(CC(=O)N[C@@H](CC(C)C)C(=O)N[C@H](CC(C)C)C(=O)NCc1occ3ccccc13)CC2=O (some centres undefined)	8.7	No inhibition	–	–	–
COc1ccc2c(c1)C(CC(=O)N[C@@H](CC(C)C)C(=O)N[C@H](CC(C)C)C(=O)NCc1c(F)cccc1F)CC2=O (some centres undefined)	0.14	No inhibition	8	–	–
COc1ccc2c(c1)C(CC(=O)N[C@@H](CC(C)C)C(=O)N[C@H](CC(C)C)C(=O)NCc1ccc(OCc3ccccc3)cc1)CC2=O (some centres undefined)	16	No inhibition	–	–	–
COc1ccc2c(c1)C(CC(=O)N[C@H](Cc1ccccc1)C(=O)N[C@H](CC(C)C)C(N)=O)CC2=O (some centres undefined)	> 20	No inhibition	–	–	–
COc1ccc2c(c1)C(CC(=O)N[C@@H](CC(C)C)C(=O)N[C@H](CC(C)C)C(=O)NCCc1ccccc1)CC2=O (some centres undefined)	> 18	No inhibition	–	–	–
COc1ccc2c(c1)C(CC(=O)N[C@@H](CC(C)C)C(=O)N[C@H](CC(C)C)C(=O)NC(C)C)CC2=O (some centres undefined)	> 20	No inhibition	–	–	–
COc1ccc2c(c1)C(CC(=O)N[C@@H](CC(C)C)C(=O)N[C@H](CC(C)C)C(=O)NCc1ccccc1-c1ccccc1)CC2=O (some centres undefined)	> 16	No inhibition	–	–	–
COc1ccc2c(c1)C(CC(=O)N[C@@H](CC(C)C)C(=O)N[C@H](CC(C)C)C(=O)NCc1ccc(-c3ccccc3)cc1)CC2=O (some centres undefined)	0.49	No inhibition	–	–	–
COc1ccc(CNC(=O)[C@@H](CC(C)C)NC(=O)[C@H](CC(C)C)NC(=O)CC2CC(=O)c3ccc(OC)cc32)cc1 (some centres undefined)	0.71	No inhibition	–	–	–
COc1ccc2c(c1)C(CC(=O)N[C@@H](CC(C)C)C(=O)N[C@H](CC(C)C)C(=O)NC(c1ccccc1)c1ccccc1)CC2=O (some centres undefined)	> 16	No inhibition	–	–	–
CCCC[C@@H](C=O)NC(=O)[C@H](CC(C)C)NC(=O)[C@H](CC(C)C)NC(C)=O (Ac-Leu-Leu-[Nle]-aldehyde)	0.15	–	–	–	7
